The source of these data is patent US10344019B2 (priority 2010, dated 2019).

What all share (format): cell-based
The test system of assay [1] is HCV 2b Rluc cells (NS5A chimeric genotype 2a JFH-1 replicon with genotype 2b MD2b-1 NS5A gene, M31 present). Nature of the assay: microbe, parasite or virus in culture. As to conditions: Hepatitis C virus, read-out: 2b. The procedure, abridged: (§1)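 Replicon cells stably carrying the listed RLuc-encoding dicistronic replicons were seeded and treated with DMSO serial dilutions of compound (10 mM stocks) diluted into culture medium. After 72 h, cells were lysed and Renilla luciferase activity measured. EC50 was derived by non-linear regression.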

The test system of assay [2] is HCV 3a RLuc cells (NS5A chimeric genotype 1b Con1 replicon with consensus genotype 3a NS5A gene). As to the kind of experiment: microbe, parasite or virus in culture. As to conditions: Hepatitis C virus. A digest of the protocol: as §1
Assay [3] has as its system HCV 4a Rluc cells (NS5A chimeric genotype 1b Con1 replicon with genotype 4a NS5A gene). As to the kind of experiment: microbe, parasite or virus in culture. As to conditions: Hepatitis C virus, read-out: 4a. A digest of the protocol:
as §1

The test system of assay [4] is HCV 1a RLuc cells (dicistronic genotype 1a H77 replicon, RLuc reporter). As to the kind of experiment: microbe, parasite or virus in culture. The following applies: Hepatitis C virus, read-out: 1a. A digest of the protocol: (§2)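 Renilla luciferase HCV replicon cells: dicistronic 1b Con1, 1a H77 or 2a JFH-1 replicons, or a JFH-1 chimera carrying J6 NS5A (M31 present). Compound in DMSO serial dilutions, 72 h incubation, then lysis and luciferase read. EC50 by non-linear regression.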

Assay [5] relates to HCV 2a JFH-1 Rluc cells (dicistronic genotype 2a JFH-1 replicon, RLuc reporter). As to the kind of experiment: microbe, parasite or virus in culture. The following applies: Hepatitis C virus, read-out: 2a JFH. The procedure, abridged:
as §2

Assay [6] has as its system HCV 1b RLuc cells (dicistronic genotype 1b Con1 replicon, RLuc reporter). Nature of the assay: microbe, parasite or virus in culture. The following applies: Hepatitis C virus, read-out: 1b (nM). A digest of the protocol: as §2
Assay [7] has as its system Q30R in genotype 1a NS5A, 1a Rluc replicon transfected into Huh-7 cured-51 cells. Nature of the assay: HCV replicon assay, resistance mutant 1a Q30R. The following applies: Hepatitis C virus, Huh-7, read-out: 1a Q30R. The procedure, abridged:
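Q30R introduced into genotype 1a H77 RLuc replicon by site-directed mutagenesis; replicon RNA transfected into Huh-7 cured-51 cells.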

Assay [8] relates to HCV 2a Rluc cells (NS5A chimeric genotype 2a JFH-1 replicon with genotype 2a J6 strain NS5A gene, M31 present). As to the kind of experiment: HCV replicon reporter assay, genotype 2a J6 (M31 present). The following applies: Hepatitis C virus, read-out: 2a J6. The procedure, abridged: as §2
Background: In antiviral work, replicon cells carry a viral genome segment that copies itself.

[9] abbreviates: read-out: 3a, genotype 3a replicon.
[10] abbreviates: read-out: 3a, genotype 3a NS5A chimeric replicon.
Where [11] appears, read: genotype 2a JFH-1 RLuc replicon.

Molecules are shown by their SMILES. pEC50: −log10 of the molar value. Like-named read-outs stand apart in the source and are kept apart here.

Consider `COC[C@H]1C[C@@H](c2nc3ccc4cc(-c5ccc6c(ccc7nc([C@@H]8CCCN8C(=O)[C@@H](NC(=O)OC)C(C)C)[nH]c76)c5)ccc4c3[nH]2)N(C(=O)[C@H](NC(=O)OC)c2ccccc2)C1` [Example 453], for which the pEC50 in assay [1], in assay [2] (setting [9]), in assay [3], in assay [4] (genotype 1a replicon), in assay [5] (genotype 2a JFH-1 replicon) and in assay [7] was 9.00 to 12.00 each time. Further, the pEC50 in assay [8] was 9.00 to 12.00. The EC50 in assay [6] turned out to be 0.018 nM.
Consider `COC[C@H]1C[C@@H](c2nc3ccc4cc(-c5ccc6c(ccc7nc([C@@H]8CCCN8C(=O)[C@H](NC(=O)OC)c8ccccc8)[nH]c76)c5)ccc4c3[nH]2)N(C(=O)[C@@H](NC(=O)OC)C(C)C)C1` [Example 454], for which the pEC50 in assay [1], in assay [2] (setting [9]), in assay [3], in assay [4] (genotype 1a replicon), in assay [5] (genotype 2a JFH-1 replicon) and in assay [7] was 9.00 to 12.00 in each case. The pEC50 in assay [8] was 9.00 to 12.00. Besides, the EC50 in assay [6] is 0.028 nM.
With `COC[C@H]1C[C@@H](c2nc3ccc4cc(-c5ccc6c(ccc7nc([C@@H]8C[C@H]9C[C@H]9N8C(=O)[C@@H](NC(=O)OC)C(C)C)[nH]c76)c5)ccc4c3[nH]2)N(C(=O)[C@H](NC(=O)OC)c2ccccc2)C1` [Example 472], the pEC50 in assay [1], in assay [2] (setting [9]), in assay [3], in assay [4] (genotype 1a replicon), in assay [5] (genotype 2a JFH-1 replicon) and in assay [7] was 9.00 to 12.00 throughout. In assay [8], the pEC50 was 9.00 to 12.00. Also, the EC50 in assay [6] amounted to 0.01 nM.
Turning to `COC[C@H]1C[C@@H](c2nc3ccc4cc(-c5ccc(-c6cnc([C@@H]7CCCN7C(=O)[C@@H](NC(=O)OC)C(C)C)[nH]6)cc5)ccc4c3[nH]2)N(C(=O)[C@H](NC(=O)C2CC2)c2ccccc2)C1` [Example 475], the pEC50 in assay [1], in assay [2] (setting [9]), in assay [3], in assay [4] (genotype 1a replicon), in assay [5] (genotype 2a JFH-1 replicon) and in assay [7] was 9.00 to 12.00 in each case. For the same compound, in assay [8], the pEC50 was 9.00 to 12.00. Besides, in assay [6], the EC50 was determined as 0.019 nM.
Turning to `COC[C@H]1C[C@@H](c2nc3ccc4cc5c(cc4c3[nH]2)OCc2cc(-c3cnc([C@@H]4CCCN4C(=O)[C@@H](NC(=O)OC)C(C)C)[nH]3)ccc2-5)N(C(=O)[C@@H](NC(=O)OC)C(C)C)C1` [Example 495], the pEC50 in assay [1], in assay [2] (setting [10]), in assay [3], in assay [4] (genotype 1a H77 RLuc replicon), in assay [5] (setting [11]) and in assay [7] was 9.00 to 12.00 in each case. Moreover, the pEC50 in assay [8] is 9.00 to 12.00. Besides, the EC50 in assay [6] stood at 0.026 nM.
With `COC(=O)N[C@H](C(=O)N1CCC[C@H]1c1nc2ccc3cc4c(cc3c2[nH]1)OCc1cc(-c2cnc([C@@H]3CCCN3C(=O)[C@H](NC(=O)C3CC3)c3ccccc3)[nH]2)ccc1-4)C(C)C` [Example 498], the pEC50 in assay [1], in assay [2] (setting [10]), in assay [3], in assay [4] (genotype 1a H77 RLuc replicon), in assay [5] (setting [11]) and in assay [7] was 9.00 to 12.00 each time. Besides, in assay [8], the pEC50 is 9.00 to 12.00. Also, in assay [6], the EC50 is 0.016 nM.
Turning to `COC[C@H]1C[C@@H](c2ncc(-c3ccc(-c4ccc(-c5cnc([C@@H]6CCCN6C(=O)[C@@H](NC(=O)OC)C(C)C)[nH]5)cc4)cc3)[nH]2)N(C(=O)[C@H](NC(=O)OC)c2ccccc2)C1` [Example 500], the pEC50 in assay [1], in assay [2] (setting [10]), in assay [3], in assay [4] (genotype 1a H77 RLuc replicon), in assay [5] (setting [11]) and in assay [7] was 9.00 to 12.00 in each case. In addition, the pEC50 in assay [8] was 7.36 to 9.00. Further, the EC50 in assay [6] turned out to be 0.028 nM.
As to `COC[C@H]1C[C@@H](c2nc3ccc4cc(-c5ccc6c(ccc7nc([C@@H]8C[C@H]9C[C@H]9N8C(=O)[C@@H](NC(=O)OC)C(C)C)[nH]c76)c5)ccc4c3[nH]2)N(C(=O)[C@H](NC(=O)C2CC2)c2ccccc2)C1` [Example 502], the pEC50 in assay [1], in assay [2] (setting [10]), in assay [3], in assay [4] (genotype 1a H77 RLuc replicon), in assay [5] (setting [11]) and in assay [7] was 9.00 to 12.00 each time. In addition, the pEC50 in assay [8] was 9.00 to 12.00. The EC50 in assay [6] was determined as 0.016 nM.
Take `COC[C@H]1C[C@@H](c2ncc(-c3ccc(-c4ccc(-c5cnc([C@@H]6CCCN6C(=O)[C@@H](NC(=O)OC)C(C)C)[nH]5)cc4)cc3)[nH]2)N(C(=O)[C@H](NC(=O)C2CC2)c2ccccc2)C1` [Example 506]: the pEC50 in assay [1], in assay [2] (setting [10]), in assay [3], in assay [4] (genotype 1a H77 RLuc replicon), in assay [5] (setting [11]) and in assay [7] was 9.00 to 12.00 in each case. The pEC50 in assay [8] is 9.00 to 12.00. Moreover, the EC50 in assay [6] came to 0.036 nM.
As to `COC[C@H]1C[C@@H](c2nc3ccc4cc(-c5ccc(-c6[nH]c([C@@H]7CCCN7C(=O)[C@H](NC(=O)C7CC7)c7ccccc7)nc6C)cc5)ccc4c3[nH]2)N(C(=O)[C@@H](NC(=O)OC)C(C)C)C1` [Example 525], the pEC50 in assay [1], in assay [2] (setting [10]), in assay [3], in assay [4] (genotype 1a H77 RLuc replicon), in assay [5] (setting [11]) and in assay [7] was 9.00 to 12.00 each time. For the same compound, the pEC50 in assay [8] is 9.00 to 12.00. Also, the EC50 in assay [6] was 0.038 nM.
On to `COC[C@H]1C[C@@H](c2ncc(-c3ccc(-c4ccc(-c5cnc([C@@H]6C[C@H]7C[C@H]7N6C(=O)[C@@H](NC(=O)OC)C(C)C)[nH]5)cc4)cc3)[nH]2)N(C(=O)[C@H](NC(=O)C2CC2)c2ccccc2)C1` [Example 527], for which the pEC50 in assay [1], in assay [2] (setting [10]), in assay [3], in assay [4] (genotype 1a H77 RLuc replicon), in assay [5] (setting [11]) and in assay [7] was 9.00 to 12.00 throughout. Besides, in assay [8], the pEC50 is 9.00 to 12.00. Moreover, the EC50 in assay [6] was 0.022 nM.
On to `COC(=O)N[C@H](C(=O)N1[C@@H]2C[C@@H]2C[C@H]1c1nc2ccc3cc4c(cc3c2[nH]1)OCc1cc(-c2cnc([C@@H]3CCCN3C(=O)[C@H](NC(=O)OC)c3ccccc3)[nH]2)ccc1-4)C(C)C` [Example 536], for which the pEC50 in assay [1], in assay [2] (setting [10]), in assay [3], in assay [4] (genotype 1a H77 RLuc replicon), in assay [5] (setting [11]) and in assay [7] was 9.00 to 12.00 in each case. Moreover, in assay [8], the pEC50 is 9.00 to 12.00. In addition, the EC50 in assay [6] turned out to be 0.013 nM.
Take `COC[C@H]1C[C@@H](c2nc3ccc4cc5c(cc4c3[nH]2)OCc2cc(-c3cnc([C@@H]4C[C@H]6C[C@H]6N4C(=O)[C@@H](NC(=O)OC)C(C)C)[nH]3)ccc2-5)N(C(=O)[C@H](NC(=O)OC)c2ccccc2)C1` [Example 539]: the pEC50 in assay [1], in assay [2] (setting [10]), in assay [3], in assay [4] (genotype 1a H77 RLuc replicon), in assay [5] (setting [11]) and in assay [7] was 9.00 to 12.00 each time. Moreover, in assay [8], the pEC50 is 9.00 to 12.00. The EC50 in assay [6] stood at 0.016 nM.
